{"source": "patent US11834566B2", "about": "“High-carbon recovered paper and plastic materials with reduced endotoxin levels” (Continuus Materials Intellectual Property, LLC, priority 2020, dated 2023)", "experiment": "Water-soluble endotoxin in aqueous extract of recovered paper/plastic fragments, L.A.L. kinetic chromogenic method", "conditions": "Example 13, about 2,000 ppm glutaraldehyde on fragments", "experimental": "Sample #7 from Example 1 was assayed for water-soluble endotoxins. Specifically, a clean, new 500 mL plastic bottle (500 mL capacity) was charged with recovered paper/plastic fragments (20 g, from sample #7 in Example 1) and sterile, cell-culture grade water (200 g). The bottle was immediately capped tightly and agitated in a Gilson shaker for a period of 60 s. The loaded bottle was then conditioned for 1 h at a temperature of 65-70° F. and was then subjected to agitation in the Gilson shaker for a second period of 60 s. The bottle was then opened and a sample of liquor extract (15 mL) was decanted into a sterile sample vial, which was immediately capped and labeled. Collected extract underwent endotoxin analysis using the L.A.L. kinetic chromogenic method.\nRecovered paper/plastic sample batches (500 g, as-is basis, #7 sample from Example 1) were loaded into a plastic bin (16.125″×11.25″×6.75″) and were then sprayed with aqueous glutaraldehyde solutions at various target levels. In this process, the loaded bin was weighed initially and was then re-weighed repeatedly during the application of the glutaraldehyde solution until the target application level was achieved. The bin was repeatedly closed and shaken during this process in order to obtain a uniform distribution of the glutaraldehyde on the fragments. […]", "data": [{"smiles": "O=CCCCC=O", "note": "[glutaraldehyde]", "values": [{"measurement": "water-soluble endotoxin crosslinked and converted to water-insoluble material", "result": "about 99.9%"}]}]}
